# Source: US20060154954A1, “Combinations and use of selected pharmaceutically active compounds” (ALTANA PHARMA AG, priority 2003, published 2006)
# System: gastric lesion
# Assay: Gastric lesions after pylorus ligation and oral acetylsalicylic acid in the rat (Shay rat, modified by Okabe)
# Type: in vivo
# Conditions: 4 hours after pylorus ligation and oral 100 mg/kg acetylsalicylic acid
# [1] = 1.0 μmol/kg intraduodenally, read-out: Reduction of lesion index versus control in %
structure (smiles),measurement,setting,value
"COCCO[C@@H]1c2ccn3c(Cl)c(C)nc3c2O[C@H](c2ccccc2)[C@@H]1O [Example 17, (7R,8R,9R)-3-chloro-8-hydroxy-7-(2-methoxyethoxy)-2-methyl-9-phenyl-7H-8,9-dihydro-pyrano[2,3-c]imidazo[1,2-a]pyridine]",Reduction of lesion index versus control in %,1.0 μmol/kg intraduodenally,100%
"COCCO[C@@H]1c2ccn3c(C)c(C)nc3c2N[C@H](c2ccccc2)[C@H]1O [Example 1, (7R,8R,9R)-8-hydroxy-7-(2-methoxyethoxy)-2,3-dimethyl-9-phenyl-7,8,9,10-tetrahydro-imi-dazo[1,2-h][1,7]naphthyridine]",Reduction of lesion index versus control in %,3.0 μmol/kg intraduodenally,100%
"CCO[C@H]1c2ccn3c(C)c(C)nc3c2N[C@H](c2ccccc2)[C@H]1O [Example 5, (7S, 8R, 9R)-2,3-dimethyl-7-ethoxy-8-hydroxy-9-phenyl-7,8,9,10-tetrahydroimidazo[1,2-h][1,7]naphthyridine]",inhibition in vivo at 1 µmol/kg,[1],100%
"COCCO[C@@H]1c2ccn3c(Cl)c(C)nc3c2N[C@H](c2ccccc2)[C@H]1O [Example 16, (7R,8R,9R)-3-chloro-8-hydroxy-7-(2-methoxyethoxy)-2-methyl-9-phenyl-7.8.9.10-tetrahydroimidazo[1.2-h][1.7]naphthyridine]",Reduction of lesion index versus control in %,6.0 μmol/kg intraduodenally,100%
"CCO[C@@H]1c2ccn3c(C)c(C)nc3c2N[C@H](c2ccccc2)[C@H]1O [Example 4, (7R, 8R, 9R)-2,3-dimethyl-7-ethoxy-8-hydroxy-9-phenyl-7,8,9,10-tetrahydroimidazo[1,2-h][1,7]naphthyridine]",inhibition in vivo at 1 µmol/kg,[1],100%
"Cc1nc2c3c(ccn2c1C)[C@@](C)(O)[C@H](O)[C@@H](c1ccccc1)N3 [Example 12, (7R,8R,9R)-2,3,7-trimethyl-7,8-dihydroxy-9-phenyl-7,8,9,10-tetrahydroimidazo[1,2-h][1,7]naphthyridine]",inhibition in vivo at 1 µmol/kg,[1],100%
"COCCO[C@@H]1c2ccn3c(C)c(C)nc3c2N[C@H](c2ccccc2)[C@H]1OC(=O)c1ccccc1 [Example 8, (7R,8R,9R)-8-benzoyloxy-7-(2-methoxyethoxy)-2,3-dimethyl-9-phenyl-7,8,9,10-tetrahydroimidazo[1,2-h][1,7]naphthyridine]",inhibition in vivo at 1 µmol/kg,[1],100%
"COCCO[C@@H]1c2ccn3c(C)c(C)nc3c2N[C@H](c2ccccc2)[C@H]1O [Example 6, (7R, 8R, 9R)-2,3-dimethyl-8-hydroxy-7-(2-methoxyethoxy)-9-phenyl-7,8,9,10-tetrahydroimidazo[1,2-h][1,7]naphthyridine]",inhibition in vivo at 1 µmol/kg,[1],100%
"COCCO[C@@H]1c2ccn3c(C)c(C)nc3c2N[C@H](c2ccccc2)[C@H]1OC(C)=O [Example 7, (7R,8R,9R)-8-acetoxy-7-(2-methoxyethoxy)-2,3-dimethyl-9-phenyl-7,8,9,10-tetrahydroimidazo[1,2-h][1,7]naphthyridine]",inhibition in vivo at 1 µmol/kg,[1],100%
"CO[C@H]1c2ccn3c(C)c(C)nc3c2N[C@H](c2ccccc2)[C@H]1O [Example 3, (7S, 8R, 9R)-2,3-dimethyl-8-hydroxy-7-methoxy-9-phenyl-7,8,9,10-tetrahydroimidazo[1,2-h][1,7]naphthyridine]",inhibition in vivo at 10 µmol/kg,"10.0 μmol/kg intraduodenally, read-out: Reduction of lesion index versus control in %",100%
"COCCO[C@@H]1c2ccn3c(C)c(C)nc3c2N[C@H](c2ccccc2)[C@H]1OC(=O)CN(C)C [Example 10, (7R,8R,9R)-7-(2-methoxyethoxy)-2,3-dimethyl-8-(N,N-dimethylaminomethylcarbonyloxy)-9-phenyl-7,8,9,10-tetrahydroimidazo[1,2-h][1,7]naphthyridine]",inhibition in vivo at 1 µmol/kg,[1],100%
"COCCO[C@@H]1c2ccn3c(C)c(C)nc3c2O[C@H](c2ccccc2)[C@@H]1O [Example 13, (7R,8R,9R)-2,3-dimethyl-8-hydroxy-7-(2-methoxyethoxy)-9-phenyl-7H-8,9-dihydropyrano[2,3-c]imidazo[1,2-a]pyridine]",Reduction of lesion index versus control in %,1.0 μmol/kg intraduodenally,100%
"Cc1nc2c3c(ccn2c1C)[C@@H](O)[C@@](C)(O)[C@@H](c1ccccc1)N3 [Example 11, (7R,8S,9R)-2,3,8-trimethyl-7,8-dihydroxy-9-phenyl-7,8,9,10-tetrahydroimidazo[1,2-h][1,7]naphthyridine]",inhibition in vivo at 1 µmol/kg,[1],100%
"COCCO[C@@H]1c2ccn3cc(C)nc3c2N[C@H](c2ccccc2)[C@H]1O [Example 15, (7R,8R,9R)-8-hydroxy-2-methyl-7-(2-methoxyethoxy)-9-phenyl-7,8,9,10-tetrahydroimidazo[1,2-h][1,7]naphthyridine]",inhibition in vivo at 6 µmol/kg,"6.0 μmol/kg intraduodenally, read-out: Reduction of lesion index versus control in %",100%
"CCO[C@@H]1c2ccn3c(C)c(C)nc3c2O[C@H](c2ccccc2)[C@@H]1O [Example 14, (7R,8R,9R)-2,3-dimethyl-8-hydroxy-7-ethoxy-9-phenyl-7H-8,9-dihydropyrano[2,3-c]imidazo[1,2-a]pyridine]",Reduction of lesion index versus control in %,1.0 μmol/kg intraduodenally,100%
"COCCO[C@@H]1c2ccn3c(C)c(C)nc3c2N[C@H](c2ccccc2)[C@H]1OC(=O)OC [Example 9, (7R,8R,9R)-8-methoxycarbonyloxy-7-(2-methoxyethoxy)-2,3-dimethyl-9-phenyl-7,8,9,10-tetrahydroimidazo[1,2-h][1,7]naphthyridine]",inhibition in vivo at 1 µmol/kg,[1],100%
"CO[C@@H]1c2ccn3c(C)c(C)nc3c2N[C@H](c2ccccc2)[C@H]1O [Example 2, (7R, 8R, 9R)-2,3-dimethyl-8-hydroxy-7-methoxy-9-phenyl-7,8,9,10-tetrahydroimidazo[1,2-h][1,7]naphthyridine]",inhibition in vivo at 1 µmol/kg,[1],100%
